Read-outs that look alike come from different tables or passages of the source.
Assays:
tail flick = conditions: intravenous delivery (Mechoulam et al. 1995); cited from earlier work
hot plate = conditions: cited from earlier work
[1] = tested on: CFA-induced paw radiant heat hypersensitivity; assay: CFA-Induced Paw Radiant Heat Hypersensitivity; format: in vivo; conditions: CFA thermal hypersensitivity, rat, 30 mg/kg p.o., HPβCD; group mean values; last time point 180 or 300 min
Protocol: Each rat was placed in a test chamber on a warm glass surface and allowed to acclimate for approximately 10 min. A radiant thermal stimulus (beam of light) was then focused through the glass onto the plantar surface of each hind paw in turn. The thermal stimulus was automatically shut off by a photoelectric relay when the paw was moved or when the cut-off time was reached (20 sec for radiant heat at ˜5 amps). An initial (baseline) response latency to the thermal stimulus was recorded for each animal prior to the injection of complete Freund's adjuvant (CFA). […] Immediately following the post-CFA latency assessment, the indicated test compound or vehicle was administered orally.
The percent reversal (% R) of hypersensitivity was calculated in one of two different ways: 1) using group mean values or 2) using individual animal values. More specifically:
Method 2. For some compounds, the % R of hypersensitivity was calculated separately for each animal according to the following formula: % reversal=[(individual treatment response−individual CFA response)/(individual baseline response−individual CFA response)]×100. Results are given as a mean of the maximum % reversal values calculated for each individual animal.

[2] = molecular target: T1, MGL (rat brain homogenate) (Rattus norvegicus, UniProt Q8R431); assay: 2-AG Accumulation Assay in rat brain homogenate; format: biochemical; conditions: 0.25 h, compound 1 μM, percent of vehicle 2-AG accumulation, read-out: Rat Brain 2AG % VehCntrl (%) @1 μM
T1 construct: pre-incubated with rat brain homogenate (50 mg); from tissue; host or cells: rat brain homogenate
T1 sequence (Q8R431 1-303): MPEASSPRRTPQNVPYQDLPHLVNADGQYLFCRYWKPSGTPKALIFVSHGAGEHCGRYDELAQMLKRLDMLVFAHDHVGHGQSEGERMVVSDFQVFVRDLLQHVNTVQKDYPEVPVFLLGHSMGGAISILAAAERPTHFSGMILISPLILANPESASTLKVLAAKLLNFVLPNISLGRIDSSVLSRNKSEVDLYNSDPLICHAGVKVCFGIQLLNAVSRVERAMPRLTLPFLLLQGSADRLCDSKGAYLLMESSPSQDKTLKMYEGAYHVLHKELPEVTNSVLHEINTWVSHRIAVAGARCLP

[3] = tested on: murine model of acute inflammation; conditions: Comelli et al. 2007; cited from earlier work

**Q.** Which “analgesia in the tail flick assay” value (tail flick) does the source give for `CCCCC/C=C\C/C=C\C/C=C\C/C=C\CCCC(=O)OC(CO)CO` [2-AG, 2-arachidinoylglycerol] here?
**A.** The value was “produces analgesia”.

**Q.** What about the “analgesia in the hot plate assay” value (hot plate; combined with 2-linoleoyl glycerol and 2-palmitoyl glycerol (Ben-Shabat et al. 1998)) of the same compound?
**A.** The value was “significant analgesia”.

**Q.** What about the “analgesia in the hot plate assay” value (hot plate; given alone (Ben-Shabat et al. 1998)) of the same compound?
**A.** Its value is “not analgesic”.

**Q.** What about the “analgesia in the hot plate assay” value (hot plate; intravenous delivery (Lichtman et al. 2002)) of the same compound?
**A.** The value was “produces analgesia”.

**Q.** Which “Method 1: peak % reversal” value [1] does the source give for `C/C(=C\c1ccc(Cl)cc1)c1c(C)c(C(=O)N2CC(N3CCN(C(=O)c4nccs4)CC3)C2)nn1-c1ccc(Cl)cc1Cl` [Cpd 1010] here?
**A.** Its value is 23.4%.

**Q.** For `Cc1ccc(-n2ccc3cc(C(=O)N4CC(N5CCN(C(=O)c6nccs6)CC5)C4)ccc32)nc1` [Cpd 1073, 1-(5-Methylpyridin-2-yl)-5-({3-[4-(1,3-thiazol-2-ylcarbonyl)piperazin-1-yl]azetidin-1-yl}carbonyl)-1H-indole], which activity at 1 µM [2] is on record?
**A.** The activity at 1 µM was 749%.

**Q.** Which “Method 1: peak % reversal” value [1] does the source give for `O=C(c1ccc(-c2cccc(C(F)(F)F)c2)c(Cl)c1)N1CC(N2CCN(C(=O)c3cscn3)CC2)C1` [Cpd 1102] here?
**A.** Its value is 38%.

**Q.** With `O=C(Nc1cccc(-c2ccccc2)c1)OC1CCCCC1` [URB602] as the compound, how does the antinociceptive effect [3] read?
**A.** The antinociceptive effect was “antinociceptive effect”.
